US8609718B2, “Pharmaceutical composition used in treatment of hyperproliferative skin conditions and malignant melanomas comprising pachastrissamine as active ingredient” (Catholic University Industry Academy Cooperation Foundation, priority 2009, dated 2013)

Columns and labels:
FoxO3a = experiment: Western blotting of FoxO3a protein expression in HaCaT; type: cell-based, human; conditions: for level of protein expression of FoxO3a, single material: treated as in Example 3-2, compared to negative control, FIG. 4E
Protocol: A HaCaT cell line was cultured in the same manner as described in Example 1. […] Then, western blotting was carried out by using FoxO3a antibody as a primary antibody.
Then, western blotting was carried out by using FoxO3a antibody as a primary antibody so as to carry out comparative analysis on the level of protein expression.

ERK = experiment: Western blotting of ERK activity (pERK) in HaCaT; type: cell-based, human; conditions: pachastrissamine 10 μg/ml, U0126 20 nM, 30 minutes, FIG. 3C
Protocol: A HaCaT cell line was cultured in the same manner as described in Example 1. […] The last group was a negative control group (−) and was added with nothing.

FoxO3a / beta-catenin = conditions: U0126, 30 minutes, FIG. 5C
Protocol: In a HaCaT cell line, pachastrissamine's effect on FoxO3a protein which can be degraded over-expression of beta-catenin was researched. In the same manner as described in Example 1, the HaCaT cell line was cultured. The cultured cells were transfected with beta-catenin so as to induce over-expression of beta-catenin. The cultured cells were plated onto a 6-well plate at a concentration of 3×10^5 cells/well and cultured for 24 hours. After the culturing, after about 12 hours of serum starvation, cells with over-expression of beta-catenin and other cells with transfection of vector were treated with U0126 (ERK inhibitor), and reacted for 30 minutes.

HaCaT cell = experiment: Phase-contrast microscope morphology analysis of surviving cells; type: cell-based, human; conditions: lithium chloride only, 300 nM; 24 hours; FIG. 2D
Protocol: HaCaT, B16F10 and A375 cell lines were cultured in the same manner as described in Example 1. The cultured HaCaT cell line was plated onto a 60 mm plate at a concentration of 5×10^4 cells/well, and cultured in a CO2 incubator (37° C., 5%) for 24 hours. The cultured respective cells were divided into 4 groups. One group was added with only pachastrissamine (PA) at a concentration of 10 μg/ml; another group was added with lithium chloride (apoptosis inhibiting material) (at a final concentration of 300 nM) as well as pachastrissamine at a concentration of 10 μg/ml (PA+Li); and a third group was added with only lithium chloride (Li). The last group was a negative control group (Con) and was added with nothing. These groups were cultured in a CO2 incubator (37° C., 5%) for 24 hours, and then the number of cells were measured in the same manner as described in Example 2-2.
The four groups of HaCaT cell samples were washed with PBS, and then surviving cells were subjected to morphology analysis through a phase-contrast microscope (see FIG. 2f).

GSK3-beta / beta-catenin = experiment: Western blotting of pGSK3-beta, GSK3-beta, pCatenin and Catenin in HaCaT; type: cell-based, human; conditions: pachastrissamine 10 μg/ml, LiCl 300 nM, 30 minutes, FIG. 5A
Protocol: The pachastrissamine's effect on beta-catenin protein expression was researched. In the same manner as described in Example 1, a HaCaT cell line was cultured.

HaCaT cell line = experiment: MTT cell viability analysis (cytotoxicity), HaCaT; type: cell-based, human; conditions: 0, 0.9, 1.8, 3.7, 7.5, 10 μg/ml, 24 hours, FIG. 1
Protocol: (§1) Pachastrissamine's cytotoxicity on a HaCaT cell line and a malignant melanoma cell line was researched through MTT cell viability analysis.
(§2) First, each of a HaCaT cell line (German Cancer Research, obtained from prof. N. Fuseni, Germany), and two kinds of malignant melanoma cell lines, B16F10 (B16) and A375 were inoculated into a DMEM (Dulbecco's Modified Eagle's Medium) culture medium added with 10% FBS (Thermo Fisher Scientific Inc.), 100 unit/ml penicillin, and 100 μg/ml streptomycin, and then cultured in a CO2 incubator (Form a Scientific, Inc.) (37° C., 5%).
(§3) The cultured HaCaT, B16F10, and A375 cells were plated onto a 96-well plate at a concentration of 5×10^4 cells/well, and cultured in a CO2 incubator (37° C., 5%) for 24 hours. The cells in respective wells were treated with pachastrissamine and phytosphingosine at various concentrations of 0, 0.9, 1.8, 3.7, 7.5, 10 μg/ml, and cultured in a CO2 incubator (37° C., 5%) for 24 hours. After the culturing, in a state where the culture medium existed, each well was added with 5 mg/ml MTT reagent at a concentration of 20 μl/[…], and cultured in an incubator for 2 hours. After 2 hours, the culture medium was removed, and each well was added with 150 μl of DMSO (dimethyl sulfoxide). Then, a spectrophotometer was used to measure the absorbance at 540 nm, thereby analyzing the cell viability. Herein, the cell viability was represented as a relative value with respect to 100% of cell viability in a control group not treated with pachastrissamine and phytosphingosine.

[1] = system: malignant melanoma cell line B16F10; experiment: MTT cell viability analysis (cytotoxicity), B16F10; type: cell-based; conditions: 0, 0.9, 1.8, 3.7, 7.5, 10 μg/ml, 24 hours, FIG. 1
Protocol: as §1, §2, §3

[2] = system: malignant melanoma cell line A375; experiment: MTT cell viability analysis (cytotoxicity), A375; type: cell-based; conditions: 0, 0.9, 1.8, 3.7, 7.5, 10 μg/ml, 24 hours, FIG. 1
Protocol: as §1, §2, §3

AKT = experiment: Western blotting of AKT phosphorylation; type: cell-based; conditions: HaCaT, B16F10, A375; 10 μg/ml pachastrissamine, 5 μg/ml phytosphingosine; 30 minutes; FIGS. 3A, 3B
Protocol: HaCaT, B16F10 and A375 cell lines were cultured in the same manner as described in Example 1. […] 30 minutes later, and 60 minutes later, each of the cell lines was resuspended in RIPA buffer [12 mM EDTA, 137 mM NaCl, 20 mM Tris-HCl (pH 8.0), 1 mM Na3VO4 (Sigma-Aldrich, USA) 10 mM NaF (Sigma), 1 mM PMSF (Sigma), 1% Triton X-100, 10% glycerol, protease inhibiting cocktail (Roche, Germany)], and then put on ice for 30 minutes so that the cells can be completely lysed. The lysate was centrifuged at 14000 rpm for 30 minutes, and the supernatant was collected. A BCA protein analysis kit (Pierce, Rockford, Ill.) was used to determine the concentration of each sample, and the sample was subjected to electrophoresis (SDS-PAGE). Western blotting was carried out on the protein isolated by the electrophoresis. After electrophoresis of the sample, the protein was transferred to a polyvinylidene fluoride membrane (Pall Corporation). Then, after blocking the membrane at room temperature for one hour using 5% BSA solution (Amresco, USA), it was treated with primary antibodies and reaction was carried out for 12 hours at 4° C. The primary antibodies were AKT antibody and Actin antibody (Cell Signaling Technology, Beverly, Mass.), which are antibodies associated in cell proliferation-related signaling. After reaction with primary antibodies, it was washed for about 30 minutes and further reacted for 1 hour at room temperature by treating with HRP-conjugated secondary antibodies. Then, after washing sufficiently for over 30 minutes, protein was identified using an ECL detection kit (intron Biotechnology).

p-FoxO3a (Ser 253) = experiment: Western blotting of p-FoxO3a (Ser 253); type: cell-based; conditions: HaCaT, A375, B16F10; 10 μg/ml; 30 minutes; FIGS. 4B, 4C
Protocol: In the same manner as described in Example 4-1, a HaCaT cell line and malignant melanoma cell lines (A375 and B16F10) were treated with pachastrissamine and phytosphingosine at a concentration of 10 μg/ml for 30 minutes and 60 minutes, respectively. Then, western blotting was carried out using p-FoxO3a (Ser 253) antibody.

COc1cccc(-c2cc(=O)c3ccccc3o2)c1N [PD98059, reference compound]
level of protein expression of FoxO3a, single material (FoxO3a): significantly increased

N#CC(=C(/N)Sc1ccccc1N)/C(C#N)=C(\N)Sc1ccccc1N [U0126, reference compound]
ERK activation (phosphorylation of ERK) (ERK): almost completely inhibited the phosphorylation of ERK | level of protein expression of FoxO3a, single material (FoxO3a): significantly increased | expression level of FoxO3a protein reduced by over-expression of beta-catenin (FoxO3a / beta-catenin; HaCaT transfected with beta-catenin): restored | protein expression level of beta-catenin (FoxO3a / beta-catenin; HaCaT with or without over-expression of beta-catenin): no effect

[Cl-].[Li+] [lithium chloride, reference compound]
cell division extent (HaCaT cell): increased | phosphorylation of GSK3-beta (GSK3-beta / beta-catenin): GSK3-beta was phosphorylated | phosphorylation of beta-catenin (GSK3-beta / beta-catenin): inhibited the phosphorylation of beta-catenin

CCCCCCCCCCCCCC[C@@H](O)[C@@H](O)[C@@H](N)CO [phytosphingosine, reference compound]
cell viability (number of surviving cells) with increasing concentration (HaCaT cell line): the number of surviving cells was reduced | cell viability (number of surviving cells) with increasing concentration [1]: the number of surviving cells was reduced | cell viability (number of surviving cells) with increasing concentration [2]: the number of surviving cells was reduced | phosphorylation of AKT after 30 minutes (AKT): reduction of phosphorylation of AKT | protein expression level of FoxO3a compared to control group (FoxO3a; 5 and 10 μg/ml, 24 hours, FIG. 4A): increased | amount of expressed p-FoxO3a after 30 minutes (p-FoxO3a (Ser 253)): reduced
